# “And” between values parts separate entries of the source, which are not always exact repeats. Equal entries are not always repeated.
# Columns and labels:
# Format in all cases: cell-based
# [1] = biological target: T1, 318 nonolfactory human GPCRs (Homo sapiens, UniProt O14626); details: GPR171; C21 5 µM
# T1 construct: expressed in transfected cells; host or cells: HTLA cells, transient
# [2] = biological target: T2, 318 nonolfactory human GPCRs (Homo sapiens, UniProt O15552); details: FFA2; C21 5 µM
# T2 construct: expressed in transfected cells; host or cells: HTLA cells, transient
# [3] = biological target: 318 nonolfactory human GPCRs (Homo sapiens, UniProt O95977); details: S1PR4; C21 5 µM
# [4] = biological target: 318 nonolfactory human GPCRs (Homo sapiens, UniProt P21462); details: FPR1; C21 5 µM
# [5] = biological target: 318 nonolfactory human GPCRs (Homo sapiens, UniProt P21917); details: DRD4; C21 5 µM
# [6] = biological target: 318 nonolfactory human GPCRs (Homo sapiens, UniProt P21918); details: DRD5; C21 5 µM
# [7] = biological target: 318 nonolfactory human GPCRs (Homo sapiens, UniProt P25103); details: TACR1; C21 5 µM
# [8] = biological target: T3, 318 nonolfactory human GPCRs (Homo sapiens, UniProt P25105); details: PTAFR; C21 5 µM
# T3 construct: expressed in transfected cells; host or cells: HTLA cells, transient
# [9] = biological target: T4, 318 nonolfactory human GPCRs (Homo sapiens, UniProt P25106); details: CXCR7; C21 5 µM
# T4 construct: expressed in transfected cells; host or cells: HTLA cells, transient
# [10] = biological target: 318 nonolfactory human GPCRs (Homo sapiens, UniProt P28335, I156V/I160V); details: HTR2C VNV; C21 5 µM
# [11] = biological target: T5, 318 nonolfactory human GPCRs (Homo sapiens, UniProt P35368); details: ADRA1B; C21 5 µM
# T5 construct: expressed in transfected cells; host or cells: HTLA cells, transient
# [12] = biological target: T6, 318 nonolfactory human GPCRs (Homo sapiens, UniProt P35410); details: MAS1L; C21 5 µM
# T6 construct: expressed in transfected cells; host or cells: HTLA cells, transient
# [13] = biological target: 318 nonolfactory human GPCRs (Homo sapiens, UniProt P43220); details: GLP1R; C21 5 µM
# [14] = biological target: T7, 318 nonolfactory human GPCRs (Homo sapiens, UniProt P46089); details: GPR3; C21 5 µM
# T7 construct: expressed in transfected cells; host or cells: HTLA cells, transient
# [15] = biological target: T8, 318 nonolfactory human GPCRs (Homo sapiens, UniProt P48146); details: NPBW2; C21 5 µM
# T8 construct: expressed in transfected cells; host or cells: HTLA cells, transient
# [16] = biological target: T9, 318 nonolfactory human GPCRs (Homo sapiens, UniProt P49238); details: CX3CR1; C21 5 µM
# T9 construct: expressed in transfected cells; host or cells: HTLA cells, transient
# [17] = biological target: T10, 318 nonolfactory human GPCRs (Homo sapiens, UniProt P50052); details: AGTR2; C21 5 µM
# T10 construct: expressed in transfected cells; host or cells: HTLA cells, transient
# [18] = biological target: T11, 318 nonolfactory human GPCRs (Homo sapiens, UniProt P51684); details: CCR6; C21 5 µM
# T11 construct: expressed in transfected cells; host or cells: HTLA cells, transient
# [19] = biological target: 318 nonolfactory human GPCRs (Homo sapiens, UniProt Q13258); details: PTGDR; C21 5 µM
# [20] = biological target: T12, 318 nonolfactory human GPCRs (Homo sapiens, UniProt Q13585); details: GPR50; C21 5 µM
# T12 construct: expressed in transfected cells; host or cells: HTLA cells, transient
# [21] = biological target: T13, 318 nonolfactory human GPCRs (Homo sapiens, UniProt Q13639); details: HTR4; C21 5 µM
# T13 construct: expressed in transfected cells; host or cells: HTLA cells, transient
# [22] = biological target: 318 nonolfactory human GPCRs (Homo sapiens, UniProt Q15743); details: GPR68; C21 5 µM
# [23] = biological target: T14, 318 nonolfactory human GPCRs (Homo sapiens, UniProt Q6U736); details: OPN5; C21 5 µM
# T14 construct: expressed in transfected cells; host or cells: HTLA cells, transient
# [24] = biological target: T15, 318 nonolfactory human GPCRs (Homo sapiens, UniProt Q86SP6); details: GPR149; C21 5 µM
# T15 construct: expressed in transfected cells; host or cells: HTLA cells, transient
# [25] = biological target: T16, 318 nonolfactory human GPCRs (Homo sapiens, UniProt Q86SQ6); details: GPR123; C21 5 µM
# T16 construct: expressed in transfected cells; host or cells: HTLA cells, transient
# [26] = biological target: 318 nonolfactory human GPCRs (Homo sapiens, UniProt Q8IYL9); details: GPR65; C21 5 µM
# [27] = biological target: T17, 318 nonolfactory human GPCRs (Homo sapiens, UniProt Q8TDU6); details: GPBA; C21 5 µM
# T17 construct: expressed in transfected cells; host or cells: HTLA cells, transient
# [28] = biological target: T18, 318 nonolfactory human GPCRs (Homo sapiens, UniProt Q96G91); details: P2RY11; C21 5 µM
# T18 construct: expressed in transfected cells; host or cells: HTLA cells, transient
# [29] = biological target: T19, 318 nonolfactory human GPCRs (Homo sapiens, UniProt Q96LB1); details: MRGPRX2; C21 5 µM
# T19 construct: expressed in transfected cells; host or cells: HTLA cells, transient
# [30] = biological target: 318 nonolfactory human GPCRs (Homo sapiens, UniProt Q99500); details: S1PR3; C21 5 µM
# [31] = biological target: T20, 318 nonolfactory human GPCRs (Homo sapiens, UniProt Q99527); details: GPER; C21 5 µM
# T20 construct: expressed in transfected cells; host or cells: HTLA cells, transient
# [32] = biological target: T21, 318 nonolfactory human GPCRs (Homo sapiens, UniProt Q9H3N8); details: HRH4; C21 5 µM
# T21 construct: expressed in transfected cells; host or cells: HTLA cells, transient
# [33] = biological target: T22, 318 nonolfactory human GPCRs (Homo sapiens, UniProt Q9NS75); details: CYSLTR2; C21 5 µM
# T22 construct: expressed in transfected cells; host or cells: HTLA cells, transient
# [34] = biological target: T23, 318 nonolfactory human GPCRs (Homo sapiens, UniProt Q9P1P5); details: TAAR2; C21 5 µM
# T23 construct: expressed in transfected cells; host or cells: HTLA cells, transient
# T18 sequence (Q96G91 whole entry): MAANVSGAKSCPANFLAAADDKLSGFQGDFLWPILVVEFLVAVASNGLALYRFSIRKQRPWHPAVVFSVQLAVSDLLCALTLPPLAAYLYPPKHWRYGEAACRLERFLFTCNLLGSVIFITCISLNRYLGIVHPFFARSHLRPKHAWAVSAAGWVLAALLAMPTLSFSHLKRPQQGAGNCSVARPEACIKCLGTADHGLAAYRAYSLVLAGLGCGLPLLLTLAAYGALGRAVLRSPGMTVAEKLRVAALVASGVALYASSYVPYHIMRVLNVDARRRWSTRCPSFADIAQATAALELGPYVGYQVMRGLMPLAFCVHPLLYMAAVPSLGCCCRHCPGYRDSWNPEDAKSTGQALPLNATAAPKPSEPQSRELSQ
# Chain of 318 nonolfactory human GPCRs (Homo sapiens, UniProt P43220) (P43220 24-463): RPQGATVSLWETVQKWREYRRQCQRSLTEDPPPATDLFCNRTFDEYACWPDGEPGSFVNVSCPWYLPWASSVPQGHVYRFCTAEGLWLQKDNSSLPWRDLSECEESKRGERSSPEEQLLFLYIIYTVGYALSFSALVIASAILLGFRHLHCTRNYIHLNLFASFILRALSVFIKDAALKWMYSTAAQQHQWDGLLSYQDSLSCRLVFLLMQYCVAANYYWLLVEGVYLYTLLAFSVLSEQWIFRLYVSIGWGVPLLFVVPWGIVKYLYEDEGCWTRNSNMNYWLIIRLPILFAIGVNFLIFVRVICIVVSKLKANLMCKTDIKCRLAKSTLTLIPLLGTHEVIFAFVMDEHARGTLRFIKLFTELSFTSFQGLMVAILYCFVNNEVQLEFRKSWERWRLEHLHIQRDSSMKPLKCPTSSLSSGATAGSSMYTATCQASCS
# T19 sequence (Q96LB1 whole entry): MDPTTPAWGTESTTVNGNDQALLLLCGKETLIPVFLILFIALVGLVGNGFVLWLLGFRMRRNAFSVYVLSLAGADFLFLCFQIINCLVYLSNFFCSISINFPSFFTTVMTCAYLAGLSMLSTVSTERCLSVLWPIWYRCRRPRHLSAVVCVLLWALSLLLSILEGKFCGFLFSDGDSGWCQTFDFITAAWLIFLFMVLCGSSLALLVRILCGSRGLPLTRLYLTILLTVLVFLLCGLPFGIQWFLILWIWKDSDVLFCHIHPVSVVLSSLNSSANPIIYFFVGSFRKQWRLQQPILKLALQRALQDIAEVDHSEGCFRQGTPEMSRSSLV
# T4 sequence (P25106 whole entry): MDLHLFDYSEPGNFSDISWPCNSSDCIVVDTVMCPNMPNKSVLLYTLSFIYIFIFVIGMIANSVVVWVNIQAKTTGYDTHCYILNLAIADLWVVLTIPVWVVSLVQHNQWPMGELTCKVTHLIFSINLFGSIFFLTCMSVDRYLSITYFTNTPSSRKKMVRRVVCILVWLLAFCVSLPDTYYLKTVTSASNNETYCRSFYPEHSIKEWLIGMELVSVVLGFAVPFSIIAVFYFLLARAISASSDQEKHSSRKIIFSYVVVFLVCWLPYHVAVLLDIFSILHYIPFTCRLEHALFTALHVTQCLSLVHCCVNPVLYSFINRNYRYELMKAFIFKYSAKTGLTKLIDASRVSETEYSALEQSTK
# T15 sequence (Q86SP6 whole entry): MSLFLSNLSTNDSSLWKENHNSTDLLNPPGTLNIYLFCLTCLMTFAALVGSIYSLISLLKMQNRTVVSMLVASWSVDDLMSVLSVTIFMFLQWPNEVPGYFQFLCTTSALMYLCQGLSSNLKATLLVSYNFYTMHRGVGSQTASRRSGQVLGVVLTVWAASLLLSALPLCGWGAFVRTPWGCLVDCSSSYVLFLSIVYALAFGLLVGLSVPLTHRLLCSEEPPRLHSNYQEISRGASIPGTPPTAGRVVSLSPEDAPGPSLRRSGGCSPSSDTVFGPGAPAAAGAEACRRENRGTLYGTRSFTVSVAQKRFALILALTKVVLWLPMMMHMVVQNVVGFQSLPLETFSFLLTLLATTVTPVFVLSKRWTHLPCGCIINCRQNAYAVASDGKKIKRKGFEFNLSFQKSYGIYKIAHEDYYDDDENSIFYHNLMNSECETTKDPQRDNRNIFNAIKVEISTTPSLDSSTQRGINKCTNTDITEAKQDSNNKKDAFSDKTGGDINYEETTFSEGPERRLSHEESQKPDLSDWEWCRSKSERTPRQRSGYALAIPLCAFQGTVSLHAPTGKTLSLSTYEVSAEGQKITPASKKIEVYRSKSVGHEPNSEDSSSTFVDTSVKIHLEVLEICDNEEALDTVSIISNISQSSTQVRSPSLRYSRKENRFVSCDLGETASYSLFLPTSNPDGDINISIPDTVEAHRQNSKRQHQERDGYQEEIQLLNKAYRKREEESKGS
# Chain of 318 nonolfactory human GPCRs (Homo sapiens, UniProt P21917) (P21917 whole entry): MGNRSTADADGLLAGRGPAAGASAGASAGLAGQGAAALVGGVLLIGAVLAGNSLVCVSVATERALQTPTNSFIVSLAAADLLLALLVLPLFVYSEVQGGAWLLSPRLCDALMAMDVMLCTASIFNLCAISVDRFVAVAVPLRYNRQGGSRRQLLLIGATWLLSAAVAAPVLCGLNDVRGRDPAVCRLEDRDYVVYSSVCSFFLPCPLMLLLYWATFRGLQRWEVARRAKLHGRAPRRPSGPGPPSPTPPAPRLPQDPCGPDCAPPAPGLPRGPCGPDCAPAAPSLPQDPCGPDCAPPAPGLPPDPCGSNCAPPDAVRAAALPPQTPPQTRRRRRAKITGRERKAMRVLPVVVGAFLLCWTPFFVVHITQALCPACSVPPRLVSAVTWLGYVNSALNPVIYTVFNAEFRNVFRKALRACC
# T14 sequence (Q6U736 whole entry): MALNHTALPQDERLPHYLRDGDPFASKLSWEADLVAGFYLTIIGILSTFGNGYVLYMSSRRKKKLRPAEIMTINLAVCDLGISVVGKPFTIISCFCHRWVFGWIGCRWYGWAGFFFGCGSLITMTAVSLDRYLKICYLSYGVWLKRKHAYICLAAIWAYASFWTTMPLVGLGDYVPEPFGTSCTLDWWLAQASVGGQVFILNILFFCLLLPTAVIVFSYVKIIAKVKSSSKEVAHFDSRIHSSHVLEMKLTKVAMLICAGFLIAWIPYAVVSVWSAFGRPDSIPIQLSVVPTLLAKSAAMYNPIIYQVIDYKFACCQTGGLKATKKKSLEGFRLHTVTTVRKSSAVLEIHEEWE
# T17 sequence (Q8TDU6 whole entry): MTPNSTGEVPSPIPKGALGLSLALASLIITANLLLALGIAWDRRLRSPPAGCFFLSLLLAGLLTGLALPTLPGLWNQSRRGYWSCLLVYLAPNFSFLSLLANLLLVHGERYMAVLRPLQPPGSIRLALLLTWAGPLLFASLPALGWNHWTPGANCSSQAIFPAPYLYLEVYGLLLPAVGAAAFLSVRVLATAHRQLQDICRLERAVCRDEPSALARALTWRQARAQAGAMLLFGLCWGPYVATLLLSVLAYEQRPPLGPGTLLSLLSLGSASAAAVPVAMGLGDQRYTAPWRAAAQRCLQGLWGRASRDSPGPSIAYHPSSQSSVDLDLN
# T1 sequence (O14626 whole entry): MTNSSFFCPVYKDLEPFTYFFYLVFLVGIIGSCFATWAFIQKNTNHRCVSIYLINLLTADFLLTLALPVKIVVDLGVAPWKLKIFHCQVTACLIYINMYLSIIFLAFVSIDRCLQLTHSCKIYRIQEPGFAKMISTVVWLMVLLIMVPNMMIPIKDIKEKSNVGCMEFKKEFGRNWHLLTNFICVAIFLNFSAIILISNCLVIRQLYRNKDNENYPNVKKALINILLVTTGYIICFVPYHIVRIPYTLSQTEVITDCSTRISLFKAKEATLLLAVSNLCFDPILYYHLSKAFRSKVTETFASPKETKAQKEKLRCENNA
# Chain of 318 nonolfactory human GPCRs (Homo sapiens, UniProt P21462) (P21462 whole entry): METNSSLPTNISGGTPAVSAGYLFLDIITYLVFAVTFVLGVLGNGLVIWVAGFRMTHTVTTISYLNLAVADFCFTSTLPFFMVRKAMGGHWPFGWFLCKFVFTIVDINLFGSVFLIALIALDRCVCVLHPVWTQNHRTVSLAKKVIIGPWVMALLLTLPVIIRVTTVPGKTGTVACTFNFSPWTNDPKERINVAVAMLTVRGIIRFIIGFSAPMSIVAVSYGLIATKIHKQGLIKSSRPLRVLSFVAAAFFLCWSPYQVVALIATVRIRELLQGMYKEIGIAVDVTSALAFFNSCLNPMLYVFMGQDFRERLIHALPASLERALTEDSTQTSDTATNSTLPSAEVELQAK
# T7 sequence (P46089 whole entry): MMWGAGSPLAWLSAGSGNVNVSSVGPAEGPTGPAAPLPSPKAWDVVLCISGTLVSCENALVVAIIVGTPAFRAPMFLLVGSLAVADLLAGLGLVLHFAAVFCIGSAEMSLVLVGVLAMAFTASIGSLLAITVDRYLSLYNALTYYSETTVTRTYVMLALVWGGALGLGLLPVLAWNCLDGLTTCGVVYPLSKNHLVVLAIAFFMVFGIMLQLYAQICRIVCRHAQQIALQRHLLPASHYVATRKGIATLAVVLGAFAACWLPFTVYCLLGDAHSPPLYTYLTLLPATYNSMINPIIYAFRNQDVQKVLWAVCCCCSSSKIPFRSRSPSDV
# T22 sequence (Q9NS75 whole entry): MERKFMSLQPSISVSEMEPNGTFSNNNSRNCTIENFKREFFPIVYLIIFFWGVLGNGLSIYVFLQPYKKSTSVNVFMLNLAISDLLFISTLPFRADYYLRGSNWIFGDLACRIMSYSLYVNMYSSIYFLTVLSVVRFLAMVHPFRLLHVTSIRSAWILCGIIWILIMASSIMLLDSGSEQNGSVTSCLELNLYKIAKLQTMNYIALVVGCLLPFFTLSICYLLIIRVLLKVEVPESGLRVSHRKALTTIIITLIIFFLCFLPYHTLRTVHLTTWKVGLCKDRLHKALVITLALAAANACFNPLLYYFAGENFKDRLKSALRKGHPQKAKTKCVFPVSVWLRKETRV
smiles,measurement,setting,value
"c1ccc2c(c1)N=C(N1CCNCC1)c1ccccc1N2 [C21, 11-(1-piperazinyl)-5H-dibenzo[b,e][1,4]diazepine]",FOLD OVER BASAL,[1],0.6 fold and 0.5 fold and 0.8 fold
same,FOLD OVER BASAL,[2],0.9 fold and 0.8 fold and 0.6 fold
same,FOLD OVER BASAL,[3],1.3 fold and 1 fold and 0.7 fold and 1.1 fold
same,FOLD OVER BASAL,[4],0.9 fold and 0.7 fold and 0.6 fold
same,FOLD OVER BASAL,[5],3.4 fold and 2.2 fold and 2 fold and 1.9 fold
same,FOLD OVER BASAL,[6],0.8 fold and 0.7 fold
same,FOLD OVER BASAL,[7],1.1 fold and 0.8 fold and 0.9 fold
same,FOLD OVER BASAL,[8],0.8 fold and 0.7 fold and 1.1 fold
same,FOLD OVER BASAL,[9],0.7 fold and 0.8 fold and 1.1 fold and 1.3 fold
same,FOLD OVER BASAL,[10],0.4 fold and 0.3 fold
same,FOLD OVER BASAL,[11],1 fold and 0.8 fold and 1.1 fold and 0.7 fold
same,FOLD OVER BASAL,[12],0.6 fold and 1 fold
same,FOLD OVER BASAL,[13],0.6 fold and 0.8 fold and 0.7 fold and 0.5 fold
same,FOLD OVER BASAL,[14],0.8 fold and 0.9 fold and 0.7 fold
same,FOLD OVER BASAL,[15],1.1 fold and 1.3 fold and 1.4 fold
same,FOLD OVER BASAL,[16],0.6 fold and 1.1 fold and 0.8 fold
same,FOLD OVER BASAL,[17],1.1 fold and 0.9 fold and 1 fold
same,FOLD OVER BASAL,[18],1.1 fold and 1.2 fold and 1.7 fold
same,FOLD OVER BASAL,[19],1.3 fold and 1.5 fold and 1 fold and 1.4 fold
same,FOLD OVER BASAL,[20],0.6 fold and 0.7 fold and 0.5 fold and 0.9 fold
same,FOLD OVER BASAL,[21],1.2 fold and 0.8 fold
same,FOLD OVER BASAL,[22],0.6 fold and 1 fold and 0.8 fold
same,FOLD OVER BASAL,[23],1.2 fold and 1.3 fold and 0.9 fold
same,FOLD OVER BASAL,[24],0.8 fold and 0.5 fold and 0.7 fold and 0.9 fold
same,FOLD OVER BASAL,[25],1.2 fold and 0.7 fold and 1.1 fold and 0.9 fold
same,FOLD OVER BASAL,[26],0.8 fold and 0.5 fold
same,FOLD OVER BASAL,[27],1.1 fold and 1 fold and 1.2 fold
same,FOLD OVER BASAL,[28],1.1 fold and 0.8 fold and 0.6 fold and 0.9 fold
same,FOLD OVER BASAL,[29],1.3 fold and 1.6 fold and 1.5 fold
same,FOLD OVER BASAL,[30],0.9 fold and 0.8 fold and 1 fold
same,FOLD OVER BASAL,[31],0.4 fold and 0.2 fold and 0.3 fold
same,FOLD OVER BASAL,[32],6.3 fold and 4 fold and 5.7 fold and 3.8 fold
same,FOLD OVER BASAL,[33],0.7 fold and 0.9 fold and 1.1 fold
same,FOLD OVER BASAL,[34],1.1 fold and 1 fold and 0.7 fold and 0.9 fold
